The values below come from patent US11077100B2, “Tetrahydroquinoline derivatives as P2X7 receptor antagonists” (RaQualia Pharma Inc., priority 2017, dated 2021).

Usually IC50 stands for the concentration at which inhibition is half-maximal.

SMILES strings stand for the structures. Where only a bound is given, the exact number is not on record here.

Assay [1] has as its target rat P2X7 (Rattus norvegicus (Rat), UniProt Q64663). As to the kind of experiment: Rat P2X7 functional assay (Ca2+ influx, Fluo-4, FDSS). The class given is cell-based. The note with it: HEK293 cells stably expressing rat P2X7; BzATP final 10 microM; 7-point dose-response; read-out: Antagonistic activities with respect to the rat P2X7 receptor (IC50). The method, boiled down:
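HEK293 cells stably expressing rat P2X7 (5,000/well, plated 24 h before) loaded with Fluo-4; compounds preincubated 10 min at room temperature, then Ca2+ rise after 10 microM BzATP (final) read on FDSS (480/540 nm). IC50 from 7-point curves, duplicate wells.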

Assay [2] addresses human P2X7 (Homo sapiens (Human), UniProt Q99572). As to the kind of experiment: Human P2X7 functional assay (Ca2+ influx, Fluo-4, FDSS). The class given is cell-based. The conditions noted are these: antagonistic activity with respect to the human P2X7 receptor; BzATP final concentration 80 microM. In a few lines: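 HEK293 cells stably expressing C-terminally FLAG-tagged human P2X7, loaded with Fluo-4. Compounds were preincubated for 10 min at room temperature, then 80 μM BzATP (final) was added and Ca2+ fluorescence read at 540 nm (480 nm excitation) by FDSS. IC50 values come from 7-point curves, duplicate wells.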

Chain of human P2X7 (Q99572 whole entry): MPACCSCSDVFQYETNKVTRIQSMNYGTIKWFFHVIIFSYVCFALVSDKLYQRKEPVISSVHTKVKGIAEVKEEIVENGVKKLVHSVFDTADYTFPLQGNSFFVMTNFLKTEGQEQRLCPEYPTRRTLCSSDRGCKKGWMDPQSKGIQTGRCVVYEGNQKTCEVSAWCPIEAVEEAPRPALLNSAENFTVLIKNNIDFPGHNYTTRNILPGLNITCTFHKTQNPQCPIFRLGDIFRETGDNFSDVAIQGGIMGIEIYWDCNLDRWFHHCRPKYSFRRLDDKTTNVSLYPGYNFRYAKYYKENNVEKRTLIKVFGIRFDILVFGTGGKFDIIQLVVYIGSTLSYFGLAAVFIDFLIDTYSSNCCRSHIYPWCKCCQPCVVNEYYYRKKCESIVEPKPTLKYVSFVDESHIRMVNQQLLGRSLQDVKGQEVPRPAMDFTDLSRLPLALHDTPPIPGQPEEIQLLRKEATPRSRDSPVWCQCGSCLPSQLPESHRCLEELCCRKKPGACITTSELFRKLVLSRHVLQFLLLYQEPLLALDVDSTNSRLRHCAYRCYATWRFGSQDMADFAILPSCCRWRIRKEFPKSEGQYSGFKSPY
Chain of rat P2X7 (Q64663 whole entry): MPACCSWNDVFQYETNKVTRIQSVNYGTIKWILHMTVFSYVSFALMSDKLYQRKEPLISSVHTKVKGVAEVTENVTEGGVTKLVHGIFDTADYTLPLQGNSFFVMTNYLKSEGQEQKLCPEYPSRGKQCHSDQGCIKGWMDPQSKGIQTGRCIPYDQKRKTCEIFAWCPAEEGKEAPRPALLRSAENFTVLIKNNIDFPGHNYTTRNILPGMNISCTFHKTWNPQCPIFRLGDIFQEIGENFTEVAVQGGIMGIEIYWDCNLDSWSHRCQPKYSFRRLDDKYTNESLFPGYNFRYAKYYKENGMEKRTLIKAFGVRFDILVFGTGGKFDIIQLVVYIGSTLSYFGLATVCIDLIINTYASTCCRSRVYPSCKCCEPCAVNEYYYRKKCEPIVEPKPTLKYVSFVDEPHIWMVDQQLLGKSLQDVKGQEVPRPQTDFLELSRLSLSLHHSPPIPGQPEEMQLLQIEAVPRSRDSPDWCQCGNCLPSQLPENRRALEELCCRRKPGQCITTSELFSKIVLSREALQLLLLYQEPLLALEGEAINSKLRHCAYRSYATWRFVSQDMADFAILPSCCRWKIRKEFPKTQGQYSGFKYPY

For the compound `O=C(NCc1ccc(Cl)cc1Cl)[C@]1(F)CC[C@](O)(CO)c2ncccc21` [Example 305, (5S,8R)-N-(2,4-dichlorobenzyl)-5-fluoro-8-hydroxy-8-(hydroxymethyl)-5,6,7,8-tetrahydroquinoline-5-carboxamide], the IC50 is below 1000 nM in assay [1] and below 50 nM in assay [2].

For `Cc1cc(Cl)cc(Cl)c1CNC(=O)C1CC(=O)c2ncccc21` (stereo not shown) [Example 16, N-(2,4-dichloro-6-methylbenzyl)-7-oxo-6,7-dihydro-5H-cyclopenta[b]pyridine-5-carboxamide], the IC50 is below 1000 nM in assay [1] and below 50 nM in assay [2].

Turning to `O=C(NCc1ccc(Cl)c(F)c1F)[C@]1(F)CC[C@@](O)(CO)c2ncccc21` [Example 322, (5S,8S)-N-(4-chloro-2,3-difluorobenzyl)-5-fluoro-8-hydroxy-8-(hydroxymethyl)-5,6,7,8-tetrahydroquinoline-5-carboxamide], the IC50 in assay [1] is below 1000 nM; in assay [2] it was 101 to 300 nM.

`O=C(NCc1ccc(F)c(F)c1F)[C@]1(F)CC[C@H](O)c2ncccc21` [Example 137, (5S,8S)-5-fluoro-8-hydroxy-N-(2,3,4-trifluorobenzyl)-5,6,7,8-tetrahydroquinoline-5-carboxamide]: the IC50 in assay [1] is below 1000 nM; in assay [2], below 50 nM.

Take `O=C(NCc1ccc(Cl)cc1Cl)[C@]1(F)CC[C@H](O)c2ncccc21` [Example 133, (5S,8S)—N-(2,4-dichlorobenzyl)-5-fluoro-8-hydroxy-5,6,7,8-tetrahydroquinoline-5-carb oxamide]: the half-inhibitory concentration (IC50) in assay [1] was below 1000 nM; in assay [2] it was below 50 nM.

Consider `O=C1NC[C@]2(CC[C@@](F)(C(=O)NCc3ccc(Cl)cc3Cl)c3cccnc32)O1` [Example 291, (5S,5′S)-N-(2,4-dichlorobenzyl)-5′-fluoro-2-oxo-6′,7′-dihydro-5′H-spiro [oxazolidine-5,8′-quinoline]-5′-carboxamide], for which the IC50 in assay [1] was below 1000 nM; in assay [2] it was 101 to 300 nM.

As for `O=C(NCc1ccc(Cl)cc1F)[C@]1(F)CC[C@@H](O)c2ncccc21` [Example 111, (5S,8R)-N-(4-chloro-2-fluorobenzyl)-5-fluoro-8-hydroxy-5,6,7,8-tetrahydroquinoline-5-carboxamide], the IC50 in assay [1] was below 1000 nM; in assay [2] it was 301 to 1000 nM.

`O=C(NCc1c(F)cc(Cl)cc1F)[C@]1(F)CC[C@H](O)c2ncccc21` [Example 184, (5S,8S)-N-(4-chloro-2,6-difluorobenzyl)-5-fluoro-8-hydroxy-5,6,7,8-tetrahydroquinoline-5-carboxamide]: the results for the IC50 in assay [1] and in assay [2] were below 1000 nM and below 50 nM, respectively.

Consider `O=C(NCc1ccc(Cl)cc1Cl)[C@]1(F)CC[C@H](O)c2ncc(F)cc21` [Example 241, (5S,8S)-N-(2,4-dichlorobenzyl)-3,5-difluoro-8-hydroxy-5,6,7,8-tetrahydroquinoline-5-carboxamide], for which the results for the IC50 in assay [1] and in assay [2] were below 1000 nM and below 50 nM, respectively.

Regarding `O=C(NCc1c(Cl)cc(Cl)cc1CO)[C@]1(F)CC[C@@](O)(CO)c2ncccc21` [Example 316, (5S,8S)-N-(2,4-dichloro-6-(hydroxymethyl)benzyl)-5-fluoro-8-hydroxy-8-(hydroxymethyl)-5,6,7,8-tetrahydroquinoline-5-carboxamide], the results for the IC50 in assay [1] and in assay [2] were below 1000 nM and below 50 nM, respectively.

Turning to `O=C(NCc1cccc(Cl)c1Cl)C1CCC(O)c2ncccc21` (stereo not shown) [Example 8, N-(2,3-dichlorobenzyl)-8-hydroxy-5,6,7,8-tetra hydroquinoline-5-carboxamide], the IC50 was below 1000 nM in assay [1] and below 50 nM in assay [2].

Take `O=C(NCc1cccc(F)c1C(F)(F)F)[C@]1(F)CC[C@H](O)c2ncccc21` [Example 178, (58,8S)-5-fluoro-N-(3-fluoro-2-(trifluoromethyl)benzyl)-8-hydroxy-5,6,7,8-tetrahydroquinoline-5-carboxamide]: the IC50 in assay [1] was below 1000 nM; in assay [2] it was below 50 nM.

As to `C[C@]1(O)CC[C@@](F)(C(=O)NCc2ccc(F)cc2Cl)c2cccnc21` [Example 259, (5S,8S)-N-(2-chloro-4-fluorobenzyl)-5-fluoro-8-hydroxy-8-methyl-5,6,7,8-tetrahydroquinoline-5-carboxamide], the figures for the IC50 in assay [1] and in assay [2] were below 1000 nM and below 50 nM, respectively.

As to `O=C(NCc1ccc(Br)cc1Cl)[C@]1(F)CC[C@@H](O)c2ncccc21` [Example 118, (5S,8R)-N-(4-bromo-2-chlorobenzyl)-5-fluoro-8-hydroxy-5,6,7,8-tetrahydroquinoline-5-carboxamide], the IC50 in assay [1] was below 1000 nM; in assay [2] it was below 50 nM.

With `Cc1cc(Cl)cc(Cl)c1CNC(=O)C1(F)CCC(O)(CO)c2ncccc21` (stereo not shown) [Example 34, N-(2,4-dichloro-6-methylbenzyl)-5-fluoro-8-hydroxy-8-(hydroxymethyl)-5,6,7,8-tetrahydroquinoline-5-carboxamide], the results for the IC50 in assay [1] and in assay [2] were below 1000 nM and below 50 nM, respectively.

On to `O=C(NCc1cccc(C(F)(F)F)c1Cl)C1CC(O)c2ncccc21` (stereo not shown) [Example 27, N-(2-chloro-3-(trifluoro-methyl)benzyl)-7-hydroxy-6,7-dihydro-5H-cyclopenta[b] pyridine-5-carboxamide], for which the IC50 in assay [1] is below 1000 nM; in assay [2], below 50 nM.

`O=C1CC[C@@](F)(C(=O)NCc2ccc(F)c(F)c2F)c2cccnc21` [Example 254, (S)-5-fluoro-8-oxo-N-(2,3,4-trifluorobenzyl)-5,6,7,8-tetrahydro-quinoline-5-carboxamide]: the IC50 is below 1000 nM in assay [1] and 301 to 1000 nM in assay [2].

Turning to `O=C1CCC(C(=O)NCc2cccc(Cl)c2Cl)c2cccnc21` (stereo not shown) [Example 3, N-(2,3-dichlorobenzyl)-8-oxo-5,6,7,8-tetrahydro-quinoline-5-carboxamide], the IC50 was below 1000 nM in assay [1] and 301 to 1000 nM in assay [2].

Regarding `O=C(NCc1ccc(F)c(F)c1F)[C@]1(F)CC[C@@H](O)c2ncccc21` [Example 108, (5S,8R)-5-fluoro-8-hydroxy-N-(2,3,4-trifluorobenzyl)-5,6,7,8-tetrahydroquinoline-5-carboxamide], the IC50 in assay [1] is below 1000 nM; in assay [2], 301 to 1000 nM.

Take `O=C1CC[C@@](F)(C(=O)NCc2ccc(C(F)(F)F)cc2Cl)c2cccnc21` [Example 253, (S)-N-(2-chloro-4-(trifluoromethyl)benzyl)-5-fluoro-8-oxo-5,6,7,8-tetrahydroquinoline-5-carboxamide]: the half-maximal inhibitory concentration (IC50) in assay [1] is below 1000 nM; in assay [2] it was below 50 nM.

As for `Cc1cccc(Cl)c1CNC(=O)[C@]1(F)CC[C@@H](O)c2ncccc21` [Example 122, (5S,8R)-N-(2-chloro-6-methylbenzyl)-5-fluoro-8-hydroxy-5,6,7,8,- tetrahydroquinoline-5-carboxamide], the IC50 is below 1000 nM in assay [1] and 50 to 100 nM in assay [2].

Take `O=C1CC[C@](F)(C(=O)NCc2cccc(C(F)(F)F)c2Cl)c2cccnc21` [Example 246, (R)-N-(2-chloro-3-(trifluoromethyl)benzyl)-5-fluoro-8-oxo-5,6,7,8-tetrahydroquinoline-5-carboxamide]: the IC50 in assay [1] is below 1000 nM; in assay [2] it was below 50 nM.

Take `C[C@]1(O)CC[C@@](F)(C(=O)NCc2ccc(F)c(Cl)c2F)c2cccnc21` [Example 268, (5S,8S)-N-(3-chloro-2,4-difluorobenzyl)-5-fluoro-8-hydroxy-8-methyl-5,6,7,8-tetrahydroquinoline-5-carboxamide]: the IC50 in assay [1] is below 1000 nM; in assay [2], below 50 nM.

For `O=C(NCc1ccc(Cl)cc1Cl)[C@]1(F)CC[C@H](OCC(O)CO)c2ncccc21` (stereo partly drawn) [Example 349, (5S,8S)—N-(2,4-dichlorobenzyl)-8-(2,3-dihydroxypropoxy)-5-fluoro-5,6,7,8-tetrahydroquinoline-5-carboxamide], the IC50 is below 1000 nM in assay [1] and below 50 nM in assay [2].

As for `O=C1COC[C@]2(CC[C@@](F)(C(=O)NCc3ccc(Cl)cc3Cl)c3cccnc32)N1` (relative stereo) [Example 61, (3R*,5′S*)-N-(2,4-dichlorobenzyl)-5′-fluoro-5-oxo-6′,7′-dihydro-5′H-spiro[morpholine-3,8′-quinoline]-5′-carboxamide], the IC50 in assay [1] is below 1000 nM; in assay [2], below 50 nM.

Turning to `C[C@H](NC(=O)[C@]1(F)CC[C@H](O)c2ncccc21)c1ccc(F)cc1Cl` [Example 239, (5S,8S)-N-((S)-1-(2-chloro-4-fluorophenyl)ethyl)-5-fluoro-8-hydroxy-5,6,7,8-tetrahydroquinoline-5-carboxamide], the IC50 was below 1000 nM in assay [1] and 101 to 300 nM in assay [2].

`C[C@]1(O)CC[C@@](F)(C(=O)NCc2ccc(Cl)cc2Cl)c2cccnc21` [Example 256, (5S,8S)-N-(2,4-dichlorobenzyl)-5-fluoro-8-hydroxy-8-methyl-5,6,7,8-tetrahydroquinoline-5-carboxamide]: the IC50 is below 1000 nM in assay [1] and below 50 nM in assay [2].

Take `O=C(NCc1ccc(Cl)cc1Cl)[C@]1(F)CC[C@@](O)(CF)c2ncccc21` [Example 285, (5S,8S)-N-(2,4-dichlorobenzyl)-5-fluoro-8-(fluoromethyl)-8-hydroxy-5,6,7,8-tetrahydroquinoline-5-carboxamide]: the values for the IC50 in assay [1] and in assay [2] were below 1000 nM and below 50 nM, respectively.

`CSC[C@]1(O)CC[C@@](F)(C(=O)NCc2ccc(Cl)cc2Cl)c2cccnc21` [Example 287, (5S,8S)-N-(2,4-dichlorobenzyl)-5-fluoro-8-hydroxy-8 ((methylthio)methyl)-5,6,7,8-tetrahydroquinoline-5-carboxamide]: the IC50 in assay [1] is below 1000 nM; in assay [2] it was below 50 nM.
